Test results as given in PMC5460925, “Degradation Paradigm of the Gut Hormone, Pancreatic Polypeptide, by Hepatic and Renal Peptidases” (Endocrinology, 2017).

What was measured:
[1] = target: T1, mouse Y4 receptor (Mus musculus, UniProt Q61041); experiment: Y4 receptor binding assay (125I-PP competition); settings: membranes of HEK293 cells overexpressing mouse Y4 receptor; competition with 125I-PP (100 pM); 90 min, 4°C; mean ± SEM of three to five separate experiments; read-out: IC50 (half maximal inhibitory concentration), Y4 receptor binding affinity
T1 construct: expressed in transfected cells; host or cells: HEK293
T1 sequence (Q61041 whole entry): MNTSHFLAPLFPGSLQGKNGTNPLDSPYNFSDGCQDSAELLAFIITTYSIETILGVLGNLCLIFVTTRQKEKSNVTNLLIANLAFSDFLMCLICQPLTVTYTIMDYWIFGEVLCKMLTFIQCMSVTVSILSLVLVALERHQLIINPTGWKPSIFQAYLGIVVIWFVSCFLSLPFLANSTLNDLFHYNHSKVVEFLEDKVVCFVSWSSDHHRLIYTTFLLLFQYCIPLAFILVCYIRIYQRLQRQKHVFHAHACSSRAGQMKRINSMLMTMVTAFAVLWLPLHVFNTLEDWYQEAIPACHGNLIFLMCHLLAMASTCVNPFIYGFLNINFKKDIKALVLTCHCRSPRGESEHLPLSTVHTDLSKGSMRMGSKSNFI
Experimental: Transfected HEK293 cells overexpressing the mouse Y4 receptor were prepared and binding assays performed as previously described ([29]). Isolated cell membranes (protein concentration, 1 to 2 µg/mL) were incubated for 90 minutes in siliconized polypropylene tubes together with ^125I-PP [1 kBq (100 pM)] and a dose response of unlabeled competing peptides at 4°C in binding buffer [20 mM HEPES (pH 7.4), 1 mM MgCl2, 5 mM CaCl2, 0.1% bovine serum albumin, and protease inhibitors (0.2 mM phenylmethylsulfonyl fluoride, 0.1 mM Diprotin A, and 10 µM phosphoramidon ( all from Sigma-Aldrich)] in a final assay volume of 0.5 mL. PP was iodinated as previously described ([8]) using ^125I from GE Healthcare Life Sciences (Amersham, UK). Pelleted membranes were washed with 5 mL ice-cold assay buffer, and the membranes were centrifuged at 15,874g for 3 minutes at 4°C, as described, to separate bound and free label. Bound radioactivity was measured using a γ-counter (NE 1600; NE Technology Ltd, Reading, UK). Specific binding was calculated as the difference between the amount of ^125I-PP bound in the absence (total binding) and presence of 5 μM unlabeled competing peptide (nonsaturable binding). All curves were performed with points in triplicate. Half maximal inhibitory concentration values were calculated using Prism, version 5.01 (GraphPad Software Inc., San Diego, CA) using a three-parameter logistic equation for the nonlinear regression fit: Y = bottom + (top − bottom)/1 + 10^(LogEC50 − X), where EC50 is the half maximal effective concentration.

[2] = test system: food intake in C57/BL6 mice; experiment: Acute feeding studies (food intake) in overnight-fasted mice; format: in vivo, mouse
Experimental: All animal procedures were approved by the British Home Office, under the United Kingdom Animal (Scientific Procedures) Act 1986 (project license, 70/6402). Adult male C57/BL6 mice (Harlan, Wyton, UK) weighing 20 to 25 g were maintained in individual cages under controlled temperature (21°C to 23°C) and light (12-hour light/dark cycle, with lights on at 7:00 AM). The mice had ad libitum access to water and normal chow RM1 (Special Diet Services, Devon, UK), unless stated otherwise. For acclimatization, the mice were regularly handled and given 2 sham subcutaneous (SC) and/or intraperitoneal (IP) injections of saline. Before each feeding study, the mice were fasted overnight, and the injections were performed during the early light phase (8:00 to 10:00 AM). The mice were stratified by body weight. To investigate the anorectic effects of DPPIV-resistant analogs, the mice were stratified into treatment groups and administered a SC injection (maximum volume, 100 µL) of vehicle, PP, PP3-36, PP2-36, or PP-Ala0 (n = […]). Food intake was measured at 1, 2, 4, and 8 hours after injection to compare the peptides with short half-lives (PP and its endogenous degradation product, PP3-36) and, in a separate experiment, at 24 hours after injection for peptides with modifications (PP-Ala0 and PP2-36, using PP as the comparator). A PP analog with global modifications for enzyme resistance (PP-x) was also investigated and administered as a SC injection (maximum volume, 100 µL) at a high and low dose (n = 9). Food intake was measured at 1, 2, 4, and 8 hours after injection. […] This dose of phosphoramidon was sufficient to inhibit NEP activity ([30]). Food intake was measured at 1, 2, 4, 8, 24, and 48 hours after injection.

[3] = in vivo; parameters: species or system mouse; settings: for level at time molar at 1.5 h: male, C57BL/6, mouse, plasma level of PP at 90 minutes
Experimental: The mice were divided into four treatment groups according to body weight. A protocol similar to that used for the phosphoramidon feeding study was used, with an IP injection, followed by a SC injection 15 minutes later (maximum volume, 50 µL for each injection) of phosphoramidon (0, 7, 20, and 60 mg/kg IP), followed by PP (150 nmol/kg SC in saline; n = 4 to 6; […]). […] Additional mice (n = 2) underwent overnight fasting and were culled at 0 minutes after injection of the control substances (saline SC and vehicle IP) for measurement of the baseline levels of circulating PP. The blood was immediately removed via cardiac puncture and centrifuged at 6000 rpm (Sigma 3K18; 12348 rotor; Sigma-Aldrich) for 10 minutes. The plasma was stored at −20°C until analysis. The plasma samples were assayed using an established in-house PP RIA ([8]). The anti-PP antibody was elevated in rabbit against human PP and recognized PP (and other truncated forms) but not in other PP-fold peptides or gastrointestinal peptides. ^125I-PP was prepared using the iodogen method and purified using HPLC. The assay was performed in duplicate in a total volume of 700 µL of 0.06 M phosphate buffer (pH 7.35) containing 0.3% bovine serum albumin. The samples were incubated for 3 days at 4°C before separation of free and antibody-bound ^125I-PP using dextran-coated charcoal. The sensitivity was ≤5 fmol/tube. The intra-assay coefficient of variation was 6%.

[4] = human, in vivo; cited from earlier work
Experimental: Administration of PP to humans is not associated with adverse side effects such as nausea, unlike GLP-1 analogs and, as such, is potentially a useful agent for the regulation of food intake and the treatment of obesity. PP is a relatively small peptide (4.2 kDa) and is therefore susceptible to a number of degradative enzymes and other eliminating mechanisms. PP consequently has a short circulating half-life of approximately 7 minutes in humans ([6]). This short half-life limits the use of native PP as a practical obesity treatment. To the best of our knowledge, the mechanisms for the degradati ...

Structure (SMILES): CC[C@H](C)[C@H](NC(=O)[C@H](Cc1ccc(O)cc1)NC(=O)[C@H](CCCNC(=N)N)NC(=O)[C@H](CCCNC(=N)N)NC(=O)[C@H](CC(C)C)NC(=O)[C@H](CC(=O)O)NC(=O)[C@H](C)NC(=O)[C@H](C)NC(=O)[C@H](Cc1ccc(O)cc1)NC(=O)[C@H](CCC(N)=O)NC(=O)[C@H](C)NC(=O)[C@H](CCSC)NC(=O)[C@H](CCC(N)=O)NC(=O)[C@H](CCC(=O)O)NC(=O)[C@@H]1CCCN1C(=O)[C@@H](NC(=O)[C@H](C)NC(=O)[C@H](CC(N)=O)NC(=O)[C@H](CC(=O)O)NC(=O)CNC(=O)[C@@H]1CCCN1C(=O)[C@H](Cc1ccc(O)cc1)NC(=O)[C@@H](NC(=O)[C@@H]1CCCN1C(=O)[C@H](CCC(=O)O)NC(=O)[C@H](CC(C)C)NC(=O)[C@@H]1CCCN1C(=O)[C@H](C)N)C(C)C)[C@@H](C)O)C(=O)N[C@@H](CC(N)=O)C(=O)N[C@@H](CCSC)C(=O)N[C@@H](CC(C)C)C(=O)N[C@H](C(=O)N[C@@H](CCCNC(=N)N)C(=O)N1CCC[C@H]1C(=O)N[C@@H](CCCNC(=N)N)C(=O)N[C@@H](Cc1ccc(O)cc1)C(N)=O)[C@@H](C)O [PP, Pancreatic polypeptide]
- IC50 [1]: 0.26 ± 0.04 nM
- cumulative food intake at 8 hours (0- to 8-hour interval), low dose ([2]; 25 nmol/kg SC, overnight-fasted C57BL/6 mice, n = 9, mean ± SEM): 2.36 ± 0.18 g
- inhibition of food intake over 24 hours vs saline ([2]; 150 nmol/kg SC, overnight-fasted C57/BL6 mice, 0 to 24 hours, n = 7): did not
- cumulative food intake 0 to 8 hours ([2]; 150 nmol/kg SC, overnight-fasted C57/BL6 mice, n = 7, mean ± SEM): 0.93 ± 0.10 g
- cumulative food intake at 48 hours, PP alone ([2]; PP 150 nmol/kg SC after vehicle IP, phosphoramidon study, fasted mice, mean ± SEM): 6.52 ± 0.14 g
- food intake at 4 hours, PP alone ([2]; PP 150 nmol/kg SC, sitagliptin study, fasted mice, mean ± SEM): 0.91 ± 0.04 g
- level at time molar at 1.5 h ([3]; sc, 150 nmol/kg, PP alone): 1.92 ± 0.134 nM
- level at time molar at 1.5 h ([3]; sc, with phosphoramidon 7 mg/kg): 5.46 ± 0.807 nM
- level at time molar at 1.5 h ([3]; sc, with phosphoramidon 20 mg/kg): 5.3 ± 0.461 nM
- level at time molar at 1.5 h ([3]; sc, with phosphoramidon 60 mg/kg): 5.53 ± 0.348 nM
- plasma levels of PP at 45 minutes, alone vs combined with any dose of phosphoramidon ([3]; mouse): did not differ significantly
- decrease of plasma level (peptide cleared) between 45 and 90 minutes after injection ([3]; mouse, sc): ~80%
- level at time molar at 0.5 h ([3]; mouse, sc, 100 nmol/kg, plasma peptide level at 30 minutes after injection): 8.74 ± 0.744 nM
- level at time molar at 2 h ([3]; mouse, sc, 100 nmol/kg, plasma peptide level at 120 minutes after injection): 2.11 ± 0.224 nM
- circulating half-life [4]: approximately 7 minutes
